The record followed here is ChEMBL document CHEMBL5584348, “Exploring Degradation of Intrinsically Disordered Protein Yes-Associated Protein Induced by Proteolysis TArgeting Chimeras” (J Med Chem, 2024).

Structures are written as SMILES. Activity calls are given as the source filed them. The calls are words filed in the database; no cut-off is given here.

Series [1] is described as follows: Cmax in Sprague-Dawley rat at 35 mg/kg, ip measured upto 24 hrs by LC-MS/MS analysis. Format: ADME, organism-based. To be noted: in vivo.
For series [2], the target named is T1, von Hippel-Lindau disease tumor suppressor/Transcriptional coactivator YAP1 (Homo sapiens, UniProt P40337+P46937). Kind of series: PROTAC activity at YAP/VHL in human Huh-7 cells assessed as induction of YAP degradation at 20 uM pretreated with VHL ligand 2 for 2 hrs followed by compound addition and measured after 24 hrs by Western blot analysis. In kind it is cell-based. On the technique in general: Immunoblotting shows a protein as a band on a membrane.

Series [3] concerns the target T1, von Hippel-Lindau disease tumor suppressor/Transcriptional coactivator YAP1. Briefly: PROTAC activity at YAP/VHL in human NCI-H226 cells assessed as induction of YAP degradation at 2.5 to 20 uM incubated for 48 hrs by Western blot analysis relative to control. To be noted: dose 2.5-20 µM. Format: cell-based.
For series [4] the target is unchanged. Kind of series: PROTAC activity at YAP/VHL in human Huh-7 cells assessed as induction of YAP degradation at 20 uM measured for 24 hrs in presence of MLN-4924 by Western blot analysis. Format: cell-based.
A further series relates to AML12. Kind of series: Antiproliferative activity against mouse AML12 cells assessed as suppression of cell proliferation incubated for 4 days by CCK-8 assay. To be noted: aml12, 96 h, time 4 day. Format: toxicity, cell-based.
For series [5], the target named is T1, von Hippel-Lindau disease tumor suppressor/Transcriptional coactivator YAP1. Kind of series: PROTAC activity at YAP/VHL in human Huh-7 cells assessed as induction of YAP degradation by measuring half life at 20 uM incubated at 48 hrs by Western blot analysis. In kind it is cell-based.
Series [6] has the same target. Briefly: PROTAC activity at YAP/VHL in human NCI-H226 cells assessed as downregulation of YAP level at 20 uM incubated at 24 hrs by Western blot analysis. In kind it is cell-based.
For series [7] the target is unchanged. Briefly: PROTAC activity at YAP/VHL in human Huh-7 cells assessed as reduction on CTGF expression incubated for 48 hrs by Western blot analysis. Format: cell-based. Particulars: dose 2.5-20 µM.
Series [8] shares this target. Briefly: PROTAC activity at YAP/VHL in human Huh-7 cells assessed as downregulation of YAP level at 20 uM incubated at 24 hrs by Western blot analysis. In kind it is cell-based.
In series [9] the test system is Huh-7. Briefly: Antitumor activity against human Huh-7 cells xenografted in immunodeficient male NSG mouse assessed as suppression of YAP expression at 35 mg/kg, ip administered every 3 days for 24 days. Format: functional, organism-based. To be noted: time 24.0 day. In general terms: In xenograft studies the graft and the host belong to different species.
Series [10] in a line: AUC (0 to infinity) in Sprague-Dawley rat at 35 mg/kg, ip measured upto 24 hrs by LC-MS/MS analysis. Format: ADME, organism-based. To be noted: in vivo.
The nature of series [11]: Toxicity in immunodeficient male NSG mouse xenografted with human Huh-7 cells assessed as change in AST level in liver at 35 mg/kg, ip administered every 3 days for 24 days. In kind it is organism-based. To be noted: in vivo, 576 h, time 24 day.
The target of series [12] is T1, von Hippel-Lindau disease tumor suppressor/Transcriptional coactivator YAP1. Briefly: PROTAC activity at YAP/VHL in human NCI-H226 cells assessed as induction of YAP degradation at 20 uM incubated at 48 hrs by Western blot analysis. In kind it is cell-based.
For series [13], the system named is Huh-7. Briefly: Antitumor activity against human Huh-7 cells xenografted in immunodeficient male NSG mouse assessed as reduction in CTGF level at 35 mg/kg, ip administered every 3 days for 24 days by Western blot analysis. In kind it is functional, organism-based. Particulars: time 24.0 day.
Series [14] has as its target Transcriptional coactivator YAP1 (Homo sapiens) (UniProt P46937). Kind of series: Inhibition of YAP nuclear localization in human Huh-7 cells assessed as decrease in integrated YAP intensity incubated for 12 hrs by immunofluorescence based microscopic analysis. In kind it is cell-based. To be noted: dose <= 20.0 µM.
For series [15], the target named is T1, von Hippel-Lindau disease tumor suppressor/Transcriptional coactivator YAP1. Kind of series: PROTAC activity at YAP/VHL in human Huh-7 cells assessed as induction of YAP degradation at 20 uM incubated at 48 hrs by Western blot analysis. Format: cell-based.

T1 sequence (P40337 whole entry, looked up): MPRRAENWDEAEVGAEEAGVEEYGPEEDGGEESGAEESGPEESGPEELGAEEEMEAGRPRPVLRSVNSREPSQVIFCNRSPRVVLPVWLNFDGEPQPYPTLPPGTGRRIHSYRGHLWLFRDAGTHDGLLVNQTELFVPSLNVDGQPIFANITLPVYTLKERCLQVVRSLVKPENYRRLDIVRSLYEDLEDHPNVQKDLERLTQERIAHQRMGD
T1 sequence (P46937 whole entry, looked up): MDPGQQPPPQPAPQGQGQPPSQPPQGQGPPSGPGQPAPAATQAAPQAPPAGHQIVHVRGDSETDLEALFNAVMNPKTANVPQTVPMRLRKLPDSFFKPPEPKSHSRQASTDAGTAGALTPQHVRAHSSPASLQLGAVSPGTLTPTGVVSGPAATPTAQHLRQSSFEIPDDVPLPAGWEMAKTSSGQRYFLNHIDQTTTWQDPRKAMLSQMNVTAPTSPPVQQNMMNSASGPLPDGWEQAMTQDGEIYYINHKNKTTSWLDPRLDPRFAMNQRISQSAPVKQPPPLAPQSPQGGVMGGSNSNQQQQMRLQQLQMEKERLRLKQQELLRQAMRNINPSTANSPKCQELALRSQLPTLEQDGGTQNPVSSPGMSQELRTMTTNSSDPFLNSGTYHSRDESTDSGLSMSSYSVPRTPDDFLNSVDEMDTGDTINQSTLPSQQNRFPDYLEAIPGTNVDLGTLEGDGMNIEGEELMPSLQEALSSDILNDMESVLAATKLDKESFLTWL
Sequence of Transcriptional coactivator YAP1 (Homo sapiens) (P46937 whole entry): as the sequence (P46937 whole entry, looked up) above

On to `COc1cc(-c2cc(-c3ccccc3)nc3c2CC(=O)Nc2ccccc2-3)ccc1OCCOCCOCCC(=O)N[C@H](C(=O)N1C[C@H](O)C[C@H]1C(=O)N[C@@H](C)c1ccc(-c2scnc2C)cc1)C(C)(C)C`, for which the peak level in series [1] (Cmax) was 193 ng/mL. For the same molecule, the outcome (in series [2]; in series [4]; in series [6]; in series [8]; in the series on Huh-7 [9]; in the series with Huh-7 [13]) was Active. In addition, the Emax in [3] came out at 97%. In addition, the Activity result in the series with AML12 is “Non-Toxic”; in [7], “Dose-Dependent Effect”; in series [11] it was “Non-Toxic”; in series [12] it was 97%; in [15], 98%. The T1/2 in series [5] worked out at 16.5 h. The molecule also registered a total exposure AUC(0-inf) in series [10] of 2690 ng·h/mL. In addition, the inhibition entry in series [14] is “Dose-Dependent Effect”.

For orientation: Cmax means the peak of the concentration-time curve. A word on the Emax: it is the greatest response seen or fitted, relative to the assay's reference. For orientation: AUC(0-inf) means total exposure, with the tail of the curve extrapolated. A higher AUC(0-inf) goes with more exposure.
